This passage reports TGI results from PubChem BioAssay (NCI).

Among the test systems are HT29 colon; A498 renal; K-562 leukemia; UO-31 renal; BT-549 breast; HL-60(TB) leukemia; MOLT-4 leukemia; SR leukemia; MALME-3M melanoma; T-47D breast; M14 melanoma; SN12C renal; UACC-257 melanoma; SK-MEL-2 melanoma; DLD-1 colon; LXFL 529 NSCLC; M19-MEL melanoma; IGROV1 ovarian; U251 CNS; HOP-18 NSCLC.
What all share (assay): NCI-60 cell line screen, 48 h

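Growth conditions: 96-well plates. Treatment: test compound, 48 hours, 5 concentrations. Analysis: linear interpolation between bracketing concentrations; unreached endpoints set to highest concentration. TGI: concentration producing complete growth inhibition.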

As to `Nc1ccc(Oc2ccc(C3(c4ccc(Oc5ccc(N)c(O)c5)cc4)C4CC5CC(C4)CC3C5)cc2)cc1O`, the TGI is 4.4 µM with HT29 colon; 31 µM in the experiment on A498 renal; 5.56 µM in the experiment with K-562 leukemia; 3.82 µM with UO-31 renal; 5.27 µM in the experiment with BT-549 breast; 5.3 µM in the experiment with HL-60(TB) leukemia. The TGI in the experiment with MOLT-4 leukemia is 4.08 µM; in the experiment with SR leukemia it was 3.11 µM; in the experiment on MALME-3M melanoma, 3.92 µM; in the experiment with T-47D breast it was > 77.2 µM; in the experiment with M14 melanoma, 3.18 µM; in the experiment with SN12C renal it was 3.62 µM. Further, the TGI turned out to be 5.91 µM in the experiment on UACC-257 melanoma and 3.88 µM with SK-MEL-2 melanoma.
As for `CCOC(=O)/C(C#N)=c1/s/c(=C(\O)N/N=C/c2ccc(OC)cc2)c(=N)n1-c1ccccc1`, the TGI with HT29 colon, with DLD-1 colon, in the experiment with K-562 leukemia, in the experiment with UO-31 renal, in the experiment with HL-60(TB) leukemia and in the experiment on MOLT-4 leukemia was > 100 µM each time. For the same compound, the TGI with SR leukemia, in the experiment on LXFL 529 NSCLC, with UACC-257 melanoma, in the experiment with M19-MEL melanoma, in the experiment on IGROV1 ovarian and in the experiment on U251 CNS was > 100 µM in each case. In the experiment on HOP-18 NSCLC, the TGI is > 100 µM.
